Experiments:
[1] = target: T1, aldose reductase (Bos taurus, UniProt P16116); assay: inhibition in vitro of partially purified aldose reductase isolated from bovine lenses (spectrophotometric); assay type: biochemical; conditions: bovine lens aldose reductase
T1 construct: partially purified aldose reductase is isolated in known manner from bovine lenses; from tissue; host or cells: bovine lenses
Description: Thus, in a standard procedure partially purified aldose reductase is isolated in known manner from bovine lenses. The percentage inhibition of this enzyme's ability in vitro to catalyse the reduction of aldoses to polyhydric alcohols, and particularly to reduce glucose to sorbitol, caused by a test compound can then be determined using standard spectrophotometric methods.

[2] = tested on: aldose reductase; assay: reduction of sciatic nerve sorbitol in streptozotocin-diabetic rats (inhibition of aldose reductase in vivo); design: species or system rat; conditions: 5 daily oral doses of 3 mg/kg
Experimental: Rats are made diabetic (as evidenced by severe glucosuria being present) by dosing with streptozotocin. The animals are then dosed daily with the test compound for one, two or five days. The animals are then sacrificed 2-6 hours after the final dose and the eye lenses and/or sciatic nerves are removed. After a standard work-up procedure the residual sorbitol levels in each tissue are determined by gas liquid chromatography after conversion to the polytrimethylsilyl derivatives. Inhibition of aldose reductase in vivo can then be assessed by comparing the residual sorbitol levels in tissues from the dosed diabetic group of rats with those of an undosed group of diabetic rats and an undosed group of normal rats.
In a variation of the above test diabetic rats are dosed at a fixed daily oral dose for five days and then sacrificed 6 hours after the final dose and the reduction of sciatic nerve sorbitol assessed relative to that in control animals.

How did the IC50 [1] turn out when Cc1cc(NC(=O)Cc2ccccc2)cc(C)c1S(=O)(=O)C[N+](=O)[O-] [Example 1, (2,6-dimethyl-4-[phenylacetamido]phenylsulfonyl)nitromethane] was run?
Its IC50 is 118 nM.

And the “reduction in sciatic nerve sorbitol levels” value [2]?
The value was 83%.
